Experimental findings from patent US20110039763A1, “TARGETED ANTIMICROBIAL MOIETIES” (C3 JIAN, INC., priority 2009, published 2011) are described below.

The assay relates to microorganisms. The experiment in a line: Targeting peptide binding to target microorganisms (Tables 3, 10, 12). As to conditions: microorganism(s) the targeting peptide binds; binding in aqueous buffers varied with peptide solubility, preferably 1x PBS.

Entries after “also recorded” stand apart in the source; their conditions may differ. Square brackets hold non-standard residues; d marks the D form. Ends that are not written are not given here. Aib = CC(C)(N)C(=O)O

In the case of “PF-728 (AIGQEQDRREYYYYSGYPYYY; Peptide with targeting and/or antimicrobial activity)”, the “Target(s)” value is “S. mutans; also recorded: E. coli”.
Regarding “PF-731 (RHKLIRLPLSESVFCFLNNPKI; Peptide with targeting and/or antimicrobial activity)”, the “Target(s)” value is on record as “L. pneumophila”.
Then “PF-732 (DRPSQTTHHTLSSSRITGPS; Peptide with targeting and/or antimicrobial activity)”, with “E. coli”.
Then “PF-733 (VISRQMGSEAVLELFIIM; Peptide with targeting and/or antimicrobial activity)”, with “S. mutans; also recorded: E. coli”; and “PF-735 (YDPLFPNDKN; Peptide with targeting and/or antimicrobial activity)”, with “S. mutans; also recorded: E. coli”; and “PF-750 (AESSPAKTTA; Peptide with targeting and/or antimicrobial activity)”, with “M. luteus; also recorded: C. jeikeium”.
Then “PF-751 (AESSPAQETT; Peptide with targeting and/or antimicrobial activity)”, with “S. epidermidis; also recorded: E. coli; also recorded: C. albicans; also recorded: C. jeikeium”.
In the case of “PF-765 (YLYWEVEHKPIIAKRDAYYAQLRKQKEIEEGA; Peptide with targeting and/or antimicrobial activity)”, the “Target(s)” value is “S. epidermidis and M. luteus and E. coli and MRSA and E. faecalis and C. jeikeium”.
Then “PF-766 (DAYYAQLRKQKEIEEGA; Peptide with targeting and/or antimicrobial activity)”, with “S. epidermidis and M. luteus and C. albicans and MRSA and E. faecalis and C. jeikeium”; and “PF-767 (DGKQGEPVALKPTDN; Peptide with targeting and/or antimicrobial activity)”, with “S. epidermidis and M. luteus and E. coli and MRSA and S. pneumoniae and E. faecalis and C. jeikeium”.
Then “PF-768 (GFRGGKRGGARG; Peptide with targeting and/or antimicrobial activity)”, with “S. epidermidis; also recorded: S. pneumoniae; also recorded: E. faecalis; also recorded: C. jeikeium”.
Turning to “PF-772 (TKESSS; Peptide with targeting and/or antimicrobial activity)”, the “Target(s)” value was “S. epidermidis and C. albicans and MRSA and S. pneumoniae and C. jeikeium”.
Then “PF-773 (TLKESK; Peptide with targeting and/or antimicrobial activity)”, with “S. epidermidis; also recorded: C. albicans; also recorded: C. jeikeium”; and “PF-777 (PGADGKLAEASAAIARLVRS; Peptide with targeting and/or antimicrobial activity)”, with “Mycobacteria spp”; and “PF-778 (MNLILTAHGT; Peptide with targeting and/or antimicrobial activity)”, with “Mycobacteria spp”.
Turning to “PF-779 (IYGDFFNFYLCDISLKVNGLQPGGPVRTVKLFGQPTGRCTPQ; Peptide with targeting and/or antimicrobial activity)”, the “Target(s)” value is given as “Mycobacteria spp”.
In the case of “PF-780 (AVYDALVALAAAEHRAELATRDARAKDTYEKIGVHVVVAA; Peptide with targeting and/or antimicrobial activity)”, the “Target(s)” value is listed as “Mycobacteria spp”.
As for “PF-781 (PLVVVNHRRAERSRG; Peptide with targeting and/or antimicrobial activity)”, the “Target(s)” value is on record as “Mycobacteria spp”.
Then “PF-782 (TGPRRGIDLTSNRALSEVLDEGLELNSRK; Peptide with targeting and/or antimicrobial activity)”, with “Mycobacteria spp”; and “PF-783 (FTSEVRGVFTYRVNKAGLITNMRGYWNLDMMTFGNQE; Peptide with targeting and/or antimicrobial activity)”, with “Mycobacteria spp”.
Then “PF-784 (MAMTTVDNIVGLVIAVALMAFLFAALLFPEKF; Peptide with targeting and/or antimicrobial activity)”, with “Mycobacteria spp”; and “PF-785 (MRPQHSPAGKAFVVKKITHEQS; Peptide with targeting and/or antimicrobial activity)”, with “Mycobacteria spp”; and “PF-786 (LSERERRRLKRGII; Peptide with targeting and/or antimicrobial activity)”, with “Mycobacteria spp”.
In the case of “PF-787 (MTERQRRALLKQHPEVVSWSDYLEKRKRRTGTAG; Peptide with targeting and/or antimicrobial activity)”, the “Target(s)” value was “Mycobacteria spp”.
With “PF-788 (GLITVFAGTARILQLRRAAKKTHAAALR; Peptide with targeting and/or antimicrobial activity)”, the “Target(s)” value is recorded as “Mycobacteria spp”.
Then “PF-789 (PRGAQSGHG; Peptide with targeting and/or antimicrobial activity)”, with “Mycobacteria spp”.
Then “PF-790 (PAGPDHLDQRDHR; Peptide with targeting and/or antimicrobial activity)”, with “Mycobacteria spp”.
Turning to “PF-791 (IFLTTQNTDYSEHNAA; Peptide with targeting and/or antimicrobial activity)”, the “Target(s)” value is given as “S. mutans”.
Regarding “PF-792 (ALHASGIQAI; Peptide with targeting and/or antimicrobial activity)”, the “Target(s)” value was “S. mutans”.
Then “PF-793 (YTQ[Aib]NNASAYAMLLTNKDTVP; ends and bridges not checked)”, with “S. mutans”; and “PF-794 (NLYFENQGN; Peptide with targeting and/or antimicrobial activity)”, with “S. mutans”.
Then “PF-795 (ALHKSGIQVIADWVPDQIYN; Peptide with targeting and/or antimicrobial activity)”, with “S. mutans”; and “PF-796 (YTQSNIPTAYALMLSNKDSI; Peptide with targeting and/or antimicrobial activity)”, with “S. mutans”.
Then “PF-797 (WYYFDNNGYM; Peptide with targeting and/or antimicrobial activity)”, with “S. mutans”; and “PF-798 (ALHSKGIKVMADWVPDQMYA; Peptide with targeting and/or antimicrobial activity)”, with “S. mutans”.
Consider “PF-799 (YTHYNTALSYALLLTNKSSVP; Peptide with targeting and/or antimicrobial activity)”, for which the “Target(s)” value was “S. mutans”.
Then “PF-800 (WYYFDNNGYM; Peptide with targeting and/or antimicrobial activity)”, with “S. mutans”; and “PF-C003 (FCSVDHDVITIAADHVKQGAEA; Peptide with targeting and/or antimicrobial activity)”, with “A. naeslundii; also recorded: P. gingivalis; also recorded: S. mutans”; and “PF-C008 (AQPRRTWLVNFGEVPSPGLTNDGMPDH; Peptide with targeting and/or antimicrobial activity)”, with “A. naeslundii”.
As for “PF-C034 (HPMPITVRSRKPGPLTAPSEH; Peptide with targeting and/or antimicrobial activity)”, the “Target(s)” value is on record as “S. mutans; also recorded: E. coli”.
For the substance “PF-C045 (FREGMGWPLSNEGSPTAPLPKHRNQV; Peptide with targeting and/or antimicrobial activity)”, the “Target(s)” value was “A. naeslundii; also recorded: T. denticola”.
Then “PF-C050 (QGLARPVLRRIPL; Peptide with targeting and/or antimicrobial activity)”, with “A. naeslundii; also recorded: S. mutans”; and “PF-C063 (SHFRKGD; Peptide with targeting and/or antimicrobial activity)”, with “A. naeslundii; also recorded: F. nucleatum; also recorded: S. mutans”.
Then “PF-C068 (LNLFASI; Peptide with targeting and/or antimicrobial activity)”, with “A. naeslundii; also recorded: F. nucleatum; also recorded: S. mutans”; and “PF-C080 (INIPGLF; Peptide with targeting and/or antimicrobial activity)”, with “A. naeslundii; also recorded: F. nucleatum; also recorded: S. mutans”.
Then “PF-C093 (EKLGTMV; Peptide with targeting and/or antimicrobial activity)”, with “A. naeslundii; also recorded: F. nucleatum; also recorded: S. mutans”; and “PF-C134 (NELMKYPATLTATATTPGIKYSHLCSVCL; Peptide with targeting and/or antimicrobial activity)”, with “A. naeslundii; also recorded: F. nucleatum; also recorded: P. gingivalis; also recorded: S. mutans; also recorded: T. denticola”; and “PF-C160 (AASGFTYCASNGVWHPY; Peptide with targeting and/or antimicrobial activity)”, with “F. nucleatum”.
For the substance “PF-C259 (AEIQPHCLSVL; Peptide with targeting and/or antimicrobial activity)”, the “Target(s)” value is reported as “F. nucleatum; also recorded: S. mutans”.
Then “PF-C271 (FFPSYYSIIITYF; Peptide with targeting and/or antimicrobial activity)”, with “A. naeslundii; also recorded: F. nucleatum; also recorded: P. gingivalis; also recorded: S. mutans; also recorded: T. denticola”; and “PF-C273 (KNMLKRRMKQKRLFDEEDRLRVLSKYTKSYY; Peptide with targeting and/or antimicrobial activity)”, with “A. naeslundii; also recorded: P. gingivalis; also recorded: S. mutans; also recorded: T. denticola”.
Then “PF-C285 (FTIIELKKQKIKHGENNKKTAHPLNEPFCARA; Peptide with targeting and/or antimicrobial activity)”, with “A. naeslundii; also recorded: F. nucleatum; also recorded: P. gingivalis; also recorded: S. mutans; also recorded: T. denticola”.
